Test [1] addresses T1, human recombinant Casein kinase 18 (CK1δ) (Homo sapiens, UniProt P48730).
T1 construct: purchased Reaction Biology Corp
As to the kind of experiment: Kinase inhibition assay (HotSpot, Reaction Biology Corp), CK1δ. It counts as biochemical. Conditions: 10 μM ATP, 10-dose IC50 mode; read-out: Compound IC50 (M) CK1δ.

The target of another test is T2, MINK/MINK1 (Homo sapiens, UniProt Q8N4C8).
T2 construct: purchased Reaction Biology Corp
As to the kind of experiment: Kinase inhibition assay (HotSpot), MINK/MINK1. Type of test: biochemical. Conditions: 10 μM ATP, 10-dose IC50 mode; read-out: Compound IC50 (M) MINK/MINK1.

Another test addresses T3, ERBB4/HER4 (Homo sapiens, UniProt Q15303).
T3 construct: purchased Reaction Biology Corp
As to the kind of experiment: Kinase inhibition assay (HotSpot), ERBB4/HER4. It counts as biochemical. Particulars: 10 μM ATP, 10-dose IC50 mode; read-out: Compound IC50 (M) ERBB4/HER4.

Test [2] has as its system TGF-β-induced IL-11 in primary human parenchymal fibroblast cells (pFbs). As to the kind of experiment: Human parenchymal fibroblast cell assay, TGF-β-induced IL-11 (ELISA). Particulars: compounds 0.1-10 μM 30 min prior to TGF-β1, 16-24 hours, 4.00* is assigned to compounds that failed to cause 50% or more inhibition at 10 µM, read-out: pIC50 IL-11 suppression (converted). It counts as cell-based. As to the method: Human Parenchymal Fibroblast Cell Assay
Primary human parenchymal fibroblast cells (pFbs) were cultured from parenchyma of lung resection specimens and from non-transplanted lungs of donors without chronic respiratory disease. pFbs were passaged in Dulbecco's Modified Eagle's Media (DMEM) containing 10% (v/v) heat-inactivated fetal calf serum (FCS), 15 mM HEPES, 0.2% (v/v) sodium bicarbonate, 2 mM L-glutamine, 1% (v/v) non-essential amino acids, 1% (v/v) sodium pyruvate, 2.5 μg/mL amphotericin, 5 IU/mL penicillin and 50 μg/mL streptomycin. In some experiments the human lung fibroblast cell line, MRC5 (sourced from ATTC) was used as indicated. The MRC5 line was maintained under the same conditions as described for the pFb.
Prior to experimentation, pFb were incubated in serum-free DMEM containing 0.25% bovine serum albumin (BSA) and insulin-transferrin-selenium-containing supplement (Monomed A; CSL, Parkville, Melbourne, Australia). The cells were incubated with small molecular CK1δ inhibitors (0.1-10 μM) for 30 min prior to […] TGF-β1 (R&D Systems, Minneapolis, Minn.) and the incubation continued for 16-24 hours prior to harvest of supernatant for detection of immunoreactive IL-11. Stock solutions were made as 10 mM in 100% DMSO and diluted to the required concentration in medium containing 0.1% DMSO (final concentration).
Supernatants were collected for measurement of IL-11 (R&D DuoSet, DY218) by ELISA following the manufacturers' instructions. Generally, capture antibodies were initially diluted to the recommended concentrations using PBS buffer, and then used to coat the wells of 96-well microplates (Greiner, #655061) by adding 50 μL/well and incubated overnight at room temperature. Next day, solutions were discarded and wells were washed 3 times with wash buffer (PBS containing 0.1% (v/v) Tween-20) prior to the addition of 200 μL of blocking solution (PBS containing 1% (v/v) BSA) for 1 hour to block non-specific sites. Plates were then washed 3 times with wash buffer and 50 μL of samples or standards were then added to wells and incubated for 2 hours at room temperature. After the incubation, plates were washed 3 times with wash buffer and 50 μL of detection antibodies were added to wells and incubated for 2 hours at room temperature. Plates were then washed 3 times before adding streptavidin-conjugated horseradish peroxidase (at the recommended concentrations) for 45 min. Plates were then washed 5 times with wash buffer and 100 μL TMB substrate solution (equal parts A and B, BD Biosciences) was added to each well until sufficient signals emerged. The reactions were inactivated by adding 100 μL sulphuric acid (2M H2SO4). The absorbance was measured at 450 nm using the Multiskan Ascent® plate reader. The absorbance of the cytokine standards was fitted to a logistic equation, allowing the concentrations of cytokine in samples to be determined.
PIC50 values (the negative log of the concentration suppressing IL-11 level by 50%) for inhibition of TGF-β-induced IL-11 were interpolated from the linear regression of log concentration small molecule versus IL-11 level (Table 4 and FIG. 2).
Background: An ELISA detects its analyte on a solid surface through an enzyme-linked reagent.

T3 sequence (Q15303 26-1308): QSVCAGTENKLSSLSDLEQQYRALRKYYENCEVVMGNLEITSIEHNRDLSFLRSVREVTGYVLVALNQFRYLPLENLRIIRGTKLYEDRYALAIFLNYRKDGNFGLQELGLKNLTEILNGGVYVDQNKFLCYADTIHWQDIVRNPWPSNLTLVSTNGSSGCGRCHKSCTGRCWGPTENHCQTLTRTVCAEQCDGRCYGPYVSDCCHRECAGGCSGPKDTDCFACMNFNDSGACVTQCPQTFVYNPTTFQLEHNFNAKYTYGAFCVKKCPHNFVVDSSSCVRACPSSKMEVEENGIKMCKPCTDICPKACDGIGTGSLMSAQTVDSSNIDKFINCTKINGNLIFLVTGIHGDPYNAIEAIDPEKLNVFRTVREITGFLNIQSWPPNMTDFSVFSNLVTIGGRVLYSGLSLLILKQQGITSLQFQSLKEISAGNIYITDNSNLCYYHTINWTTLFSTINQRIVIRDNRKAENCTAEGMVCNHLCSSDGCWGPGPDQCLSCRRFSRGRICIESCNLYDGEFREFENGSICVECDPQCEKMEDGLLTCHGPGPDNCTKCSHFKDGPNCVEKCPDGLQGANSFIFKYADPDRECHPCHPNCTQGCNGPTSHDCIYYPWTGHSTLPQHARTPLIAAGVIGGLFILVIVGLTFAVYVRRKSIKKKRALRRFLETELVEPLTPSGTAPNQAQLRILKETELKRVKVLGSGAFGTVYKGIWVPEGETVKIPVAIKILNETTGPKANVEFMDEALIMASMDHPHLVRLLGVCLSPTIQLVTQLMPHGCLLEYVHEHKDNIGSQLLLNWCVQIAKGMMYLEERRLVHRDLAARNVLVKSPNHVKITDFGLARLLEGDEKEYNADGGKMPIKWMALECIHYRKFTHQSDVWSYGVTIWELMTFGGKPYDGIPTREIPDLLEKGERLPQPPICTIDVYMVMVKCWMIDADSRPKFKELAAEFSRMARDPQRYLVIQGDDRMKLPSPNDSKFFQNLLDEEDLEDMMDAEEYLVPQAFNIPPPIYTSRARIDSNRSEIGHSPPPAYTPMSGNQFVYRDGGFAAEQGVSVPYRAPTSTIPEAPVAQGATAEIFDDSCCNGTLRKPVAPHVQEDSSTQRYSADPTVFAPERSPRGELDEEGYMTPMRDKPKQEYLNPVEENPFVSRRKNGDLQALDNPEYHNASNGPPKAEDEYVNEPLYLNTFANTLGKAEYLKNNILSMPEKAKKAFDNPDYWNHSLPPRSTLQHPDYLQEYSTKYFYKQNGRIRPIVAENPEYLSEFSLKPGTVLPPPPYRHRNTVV
T1 sequence (P48730 whole entry): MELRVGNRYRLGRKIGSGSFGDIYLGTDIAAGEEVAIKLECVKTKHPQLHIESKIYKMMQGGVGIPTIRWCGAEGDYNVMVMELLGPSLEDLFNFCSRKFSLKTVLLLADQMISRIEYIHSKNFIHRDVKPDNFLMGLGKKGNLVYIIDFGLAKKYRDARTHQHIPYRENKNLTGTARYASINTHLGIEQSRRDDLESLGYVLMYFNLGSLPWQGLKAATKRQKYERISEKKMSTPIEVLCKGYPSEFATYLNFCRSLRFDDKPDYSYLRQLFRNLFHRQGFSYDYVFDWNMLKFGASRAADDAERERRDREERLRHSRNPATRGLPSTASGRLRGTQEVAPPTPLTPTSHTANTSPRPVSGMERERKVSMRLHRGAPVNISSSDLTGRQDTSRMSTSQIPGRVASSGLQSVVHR
T2 sequence (Q8N4C8 whole entry): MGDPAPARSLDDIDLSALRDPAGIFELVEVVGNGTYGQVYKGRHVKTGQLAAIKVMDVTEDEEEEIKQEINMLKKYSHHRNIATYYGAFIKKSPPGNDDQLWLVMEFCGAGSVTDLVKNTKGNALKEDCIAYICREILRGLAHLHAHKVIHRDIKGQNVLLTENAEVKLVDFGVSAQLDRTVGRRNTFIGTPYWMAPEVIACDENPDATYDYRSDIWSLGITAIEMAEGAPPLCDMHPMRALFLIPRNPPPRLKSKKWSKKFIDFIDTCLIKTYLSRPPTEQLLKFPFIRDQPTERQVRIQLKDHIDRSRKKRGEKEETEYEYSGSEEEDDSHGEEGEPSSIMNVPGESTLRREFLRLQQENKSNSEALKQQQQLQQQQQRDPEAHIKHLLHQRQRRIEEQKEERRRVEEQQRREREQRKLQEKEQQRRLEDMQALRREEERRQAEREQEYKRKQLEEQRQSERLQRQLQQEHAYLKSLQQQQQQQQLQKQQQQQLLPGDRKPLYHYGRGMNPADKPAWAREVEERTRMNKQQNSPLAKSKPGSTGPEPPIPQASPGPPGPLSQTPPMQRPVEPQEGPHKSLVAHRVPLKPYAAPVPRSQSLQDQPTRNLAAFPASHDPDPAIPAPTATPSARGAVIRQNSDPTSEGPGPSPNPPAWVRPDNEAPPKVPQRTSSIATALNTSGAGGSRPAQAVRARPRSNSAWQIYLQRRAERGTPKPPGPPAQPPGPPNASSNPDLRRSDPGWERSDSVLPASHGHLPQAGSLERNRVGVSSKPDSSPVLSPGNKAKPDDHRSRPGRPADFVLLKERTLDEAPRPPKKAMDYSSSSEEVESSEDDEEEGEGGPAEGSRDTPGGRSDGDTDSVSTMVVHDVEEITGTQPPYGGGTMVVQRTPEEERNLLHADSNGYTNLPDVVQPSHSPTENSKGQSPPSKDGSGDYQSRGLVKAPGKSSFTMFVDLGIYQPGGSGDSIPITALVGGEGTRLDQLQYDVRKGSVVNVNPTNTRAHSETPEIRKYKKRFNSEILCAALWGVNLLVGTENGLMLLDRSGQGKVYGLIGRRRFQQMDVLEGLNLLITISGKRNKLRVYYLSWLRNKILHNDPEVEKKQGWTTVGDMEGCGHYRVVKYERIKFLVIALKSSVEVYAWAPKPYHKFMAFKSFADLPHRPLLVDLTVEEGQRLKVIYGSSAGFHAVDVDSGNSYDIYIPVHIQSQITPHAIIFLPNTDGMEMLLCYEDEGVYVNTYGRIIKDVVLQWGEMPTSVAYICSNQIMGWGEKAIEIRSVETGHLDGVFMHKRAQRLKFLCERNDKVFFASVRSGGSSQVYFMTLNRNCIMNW

For the compound `Fc1ccc(-c2ncn(C3CCCCC3)c2-c2ccnc(NC3CCCC3)n2)cc1` [ZH2-46, 4-(1-Cyclohexyl-4-(4-fluorophenyl)-1H-imidazol-5-yl)-N-cyclopentylpyrimidin-2-amine], the IC50 in test [1] was 4.99e-09 M; at MINK/MINK1, 6.69e-08 M; at ERBB4/HER4, 9.01e-06 M.
Take `Fc1ccc(-c2ncn(C3CCCCC3)c2-c2ccnc(NC3CCOCC3)n2)cc1` [ZH2-54, 4-(1-Cyclohexyl-4-(4-fluorophenyl)-1H-imidazol-5-yl)-N-(tetrahydro-2H-pyran-4-yl)pyrimidin-2-amine]: the values for the IC50 (in test [1]; on MINK/MINK1; in test [2]) were 1.73e-09 M, 1.7e-07 M and 4370 nM, respectively.
For `Fc1ccc(-c2ncn(C3CCCCC3)c2-c2ccnc(NC3CCCCC3)n2)cc1` [ZH2-58, N-Cyclohexyl-4-(1-cyclohexyl-4-(4-fluorophenyl)-1H-imidazol-5-yl)pyrimidin-2-amine], the IC50 was 1.95e-08 M in test [1], 2.36e-07 M at MINK/MINK1, greater than 1e-05 M on ERBB4/HER4 and 29500 nM in test [2].
The like results for `CCNc1nccc(-c2c(-c3ccc(F)cc3)ncn2C2CCCCC2)n1` [ZH2-78, 4-(1-Cyclohexyl-4-(4-fluorophenyl)-1H-imidazol-5-yl)-N-ethylpyrimidin-2-amine] were, in that order, 4.7e-09 M, 2.26e-08 M, 7.5e-07 M and 295 nM.
Regarding `Fc1ccc(-c2ncn(C3CCCCC3)c2-c2ccnc(NCc3cccc(F)c3)n2)cc1` [ZH2-114, 4-(1-Cyclohexyl-4-(4-fluorophenyl)-1H-imidazol-5-yl)-N-(3-fluorobenzyl)pyrimidin-2-amine], the IC50 came to 3.67e-09 M in test [1] and 3.33e-08 M on MINK/MINK1.
Consider `Fc1ccc(-c2ncn(C3CCCCC3)c2-c2ccnc(NCc3ccccc3F)n2)cc1` [ZH2-118, 4-(1-Cyclohexyl-4-(4-fluorophenyl)-1H-imidazol-5-yl)-N-(2-fluorobenzyl)pyrimidin-2-amine], for which the IC50 was 9.6e-09 M in test [1], 4.21e-08 M on MINK/MINK1, 3.66e-06 M on ERBB4/HER4 and 1450 nM in test [2].
For `Fc1ccc(CNc2nccc(-c3c(-c4ccc(F)cc4)ncn3C3CCCCC3)n2)cc1` [ZH2-122, 4-(1-Cyclohexyl-4-(4-fluorophenyl)-1H-imidazol-5-yl)-N-(4-fluorobenzyl)pyrimidin-2-amine], the IC50 in test [1] is 5.07e-09 M; on MINK/MINK1, 1.95e-08 M; in test [2] it was 2450 nM.
The like results for `Fc1ccc(-c2ncn(C3CCCCC3)c2-c2ccnc(NC3CCC(F)(F)CC3)n2)cc1` [ZH2-146, 4-(1-Cyclohexyl-4-(4-fluorophenyl)-1H-imidazol-5-yl)-N-(4,4-difluorocyclohexyl)pyrimidin-2-amine] were, in that order, 4.93e-09 M, 1.1e-07 M and 11500 nM.
As to `O[C@H]1C[C@H](Nc2nccc(-c3c(-c4ccc(F)cc4)ncn3C3CCCCC3)n2)C1` [ZH3-50, trans-3-((4-(1-Cyclohexyl-4-(4-fluorophenyl)-1H-imidazol-5-yl)pyrimidin-2-yl)amino)cyclobutan-1-ol], the IC50 in test [1] was 1.36e-09 M; at MINK/MINK1 it was 1.73e-08 M; at ERBB4/HER4, 4.41e-06 M; in test [2], 417 nM.
Turning to `Nc1nccc(-c2c(-c3ccc(F)cc3)ncn2C2CCCC2)n1` [ZH3-58, 4-(1-Cyclopentyl-4-(4-fluorophenyl)-1H-imidazol-5-yl)pyrimidin-2-amine], the IC50 in test [1] is 8.33e-09 M; on MINK/MINK1, 2.17e-07 M; on ERBB4/HER4, 1.39e-06 M; in test [2], 550 nM.
`O[C@H]1C[C@@H](Nc2nccc(-c3c(-c4ccc(F)cc4)ncn3C3CCCCC3)n2)C1` [ZH3-62, cis-3-((4-(1-Cyclohexyl-4-(4-fluorophenyl)-1H-imidazol-5-yl)pyrimidin-2-yl)amino)cyclobutan-1-ol]: the IC50 was 1.31e-09 M in test [1], 7.53e-09 M at MINK/MINK1, greater than 1e-05 M on ERBB4/HER4 and 1000 nM in test [2].
For the compound `Fc1ccc(-c2ncn(C3CCCCC3)c2-c2ccnc(NC3CC(F)(F)C3)n2)cc1` [ZH3-70, 4-(1-Cyclohexyl-4-(4-fluorophenyl)-1H-imidazol-5-yl)-N-(3,3-difluorocyclobutyl)pyrimidin-2-amine], the figures for the IC50 (in test [1]; on MINK/MINK1) were 1e-09 M and 2.16e-08 M, respectively.
Turning to `CC(C)(C)Cn1cnc(-c2ccc(F)cc2)c1-c1ccnc(N)n1` [ZH3-78, 4-(4-(4-Fluorophenyl)-1-neopentyl-1H-imidazol-5-yl)pyrimidin-2-amine], the IC50 in test [1] is 5.93e-08 M; at MINK/MINK1, 8.09e-07 M; at ERBB4/HER4 it was 8.35e-06 M; in test [2] it was 8510 nM.
As to `Fc1ccc(-c2ncn(C3CCCCC3)c2-c2ccnc(NC3CC3)n2)cc1` [ZH3-86, 4-(1-Cyclohexyl-4-(4-fluorophenyl)-1H-imidazol-5-yl)-N-cyclopropylpyrimidin-2-amine], the IC50 is 7.59e-09 M in test [1], 1.06e-08 M at MINK/MINK1, 1.48e-06 M on ERBB4/HER4 and 339 nM in test [2].
On the same counts, the results for `Fc1ccc(-c2ncn(CC3CCCCC3)c2-c2ccnc(NC3COC3)n2)cc1` [ZH3-114, 4-(1-(Cyclohexylmethyl)-4-(4-fluorophenyl)-1H-imidazol-5-yl)-N-(oxetan-3-yl)pyrimidin-2-amine] are 1.17e-09 M, 9.44e-08 M, 3e-06 M and 10500 nM.
On the same counts, the results for `OCCNc1nccc(-c2c(-c3ccc(F)cc3)ncn2CC2CCCCC2)n1` [ZH3-118, 2-((4-(1-(Cyclohexylmethyl)-4-(4-fluorophenyl)-1H-imidazol-5-yl)pyrimidin-2-yl)amino)ethan-1-ol] are 2.13e-09 M, 1.97e-07 M, 5.13e-07 M and 8320 nM.
On the same counts, the results for `CCn1cnc(-c2ccc(F)cc2)c1-c1ccnc(NC2CCC2)n1` [ZH3-122, N-Cyclobutyl-4-(1-ethyl-4-(4-fluorophenyl)-1H-imidazol-5-yl)pyrimidin-2-amine] are 4.16e-09 M, 1.83e-08 M, 4.42e-06 M and 178 nM.
Take `Nc1nccc(-c2c(-c3ccc(F)cc3)ncn2CC2CCC(F)(F)CC2)n1` [ZH3-130, 4-(1-((4,4-Difluorocyclohexyl)methyl)-4-(4-fluorophenyl)-1H-imidazol-5-yl)pyrimidin-2-amine]: the IC50 was 6.13e-09 M in test [1], 8.9e-07 M at MINK/MINK1, 1.42e-06 M at ERBB4/HER4 and 832 nM in test [2].
In the case of `O=S1(=O)CCC(Nc2nccc(-c3c(-c4ccc(F)cc4)ncn3C3CCCCC3)n2)CC1` [ZH3-134, 4-((4-(1-Cyclohexyl-4-(4-fluorophenyl)-1H-imidazol-5-yl)pyrimidin-2-yl)amino)tetrahydro-2H-thiopyran 1,1-dioxide], the IC50 in test [1] stood at 1.15e-09 M; on MINK/MINK1, 3.77e-08 M.

For the origin of these results see patent publication US20220281846A1, “COMPOUNDS AND COMPOSITIONS FOR THE TREATMENT OF RESPIRATORY DISEASES” (THE UNIVERSITY OF MELBOURNE, priority 2018, published 2022).
